Earlier results as cited in patent US8183203B2, “Methods for treating pulmonary hypertension and compositions comprising vasoactive intestinal peptide” (Avant Garde Therapeutics & Technologies LLC, priority 1999, dated 2012).

Legend:
Na+ channels = conditions: isolated rabbit ventricular myocytes, acute
[1] = tested on: dogs left in ventricular fibrillation; conditions: four dogs, ventricular fibrillation for seven minutes, 4 μg/kg IV bolus, then defibrillated

Row | SMILES | burst mode gating of Na+ channels (Na+ channels) | dogs successfully resuscitated [1] | time to peak action (onset of inotropic action) (isolated rat hearts) [s] | maximum dp/dt (contractility) after a bolus injection (isolated rat hearts)
1 | N[C@@H](Cc1cc(I)c(Oc2ccc(O)c(I)c2)c(I)c1)C(=O)O [T3, 3,5,3′ triiodothyronine] | acutely increased | Three out of four | 15 | rapidly and significantly increased
2 | CC(C)NCC(O)c1ccc(O)c(O)c1 (stereo not drawn) [isoproterenol] |  |  | 60 | also increased
